Data from the NIST ThermoML archive (doi:10.1007/s10765-016-2109-2).
± gives the expanded uncertainty stated by the source.

Assay: molar heat capacity at saturation pressure
Conditions: Liquid, Vacuum adiabatic calorimetry

CCCCCC[n+]1ccn(C)c1.O=S(=O)([N-]S(=O)(=O)C(F)(F)F)C(F)(F)F showed a molar heat capacity (288.72 K) of 599.09 ± 36 J/K/mol, a molar heat capacity (288.87 K) of 602.23 ± 36 J/K/mol and a molar heat capacity (289.04 K) of 592.83 ± 36 J/K/mol. It also gave a molar heat capacity (289.17 K) of 597.31 ± 36 J/K/mol, a molar heat capacity (289.3 K) of 604.91 ± 36 J/K/mol and a molar heat capacity (289.44 K) of 590.59 ± 35 J/K/mol. It also gave a molar heat capacity (289.57 K) of 596.41 ± 36 J/K/mol, a molar heat capacity (289.7 K) of 599.99 ± 36 J/K/mol and a molar heat capacity (289.83 K) of 601.78 ± 36 J/K/mol. For the same molecule, the molar heat capacity (297.45 K) was 599.54 ± 36 J/K/mol, the molar heat capacity (297.76 K) was 608.04 ± 37 J/K/mol and the molar heat capacity (297.89 K) was 604.46 ± 36 J/K/mol. The molar heat capacity (298.02 K) was 598.65 ± 36 J/K/mol, the molar heat capacity (298.15 K) was 596.41 ± 36 J/K/mol and the molar heat capacity (298.28 K) was 606.25 ± 36 J/K/mol. The molar heat capacity (298.41 K) was 601.78 ± 36 J/K/mol, the molar heat capacity (298.53 K) was 599.99 ± 36 J/K/mol and the molar heat capacity (298.66 K) was 603.57 ± 36 J/K/mol. For the same molecule, the molar heat capacity (301.64 K) was 606.7 ± 36 J/K/mol, the molar heat capacity (301.75 K) was 608.94 ± 37 J/K/mol and the molar heat capacity (301.88 K) was 612.52 ± 37 J/K/mol. It also gave a molar heat capacity (302.01 K) of 606.7 ± 36 J/K/mol, a molar heat capacity (302.13 K) of 613.41 ± 37 J/K/mol and a molar heat capacity (302.26 K) of 605.81 ± 36 J/K/mol. The molar heat capacity (304.3 K) was 608.49 ± 37 J/K/mol, the molar heat capacity (304.69 K) was 603.12 ± 36 J/K/mol and the molar heat capacity (304.82 K) was 606.7 ± 36 J/K/mol. The molar heat capacity (304.95 K) was 612.52 ± 37 J/K/mol, the molar heat capacity (305.08 K) was 604.46 ± 36 J/K/mol and the molar heat capacity (305.2 K) was 610.73 ± 37 J/K/mol. It also gave a molar heat capacity (305.33 K) of 607.6 ± 36 J/K/mol, a molar heat capacity (305.46 K) of 613.41 ± 37 J/K/mol and a molar heat capacity (305.59 K) of 609.39 ± 37 J/K/mol. It also gave a molar heat capacity (314.15 K) of 619.68 ± 37 J/K/mol, a molar heat capacity (314.57 K) of 615.2 ± 37 J/K/mol and a molar heat capacity (314.69 K) of 607.6 ± 36 J/K/mol. The molar heat capacity (314.82 K) was 616.99 ± 37 J/K/mol, the molar heat capacity (314.94 K) was 611.62 ± 37 J/K/mol and the molar heat capacity (315.07 K) was 612.52 ± 37 J/K/mol. It also gave a molar heat capacity (315.2 K) of 618.33 ± 37 J/K/mol, a molar heat capacity (315.32 K) of 614.75 ± 37 J/K/mol and a molar heat capacity (315.45 K) of 608.94 ± 37 J/K/mol. It also gave a molar heat capacity (320.89 K) of 620.12 ± 37 J/K/mol, a molar heat capacity (321.17 K) of 622.81 ± 38 J/K/mol and a molar heat capacity (321.3 K) of 614.75 ± 37 J/K/mol. The molar heat capacity (321.42 K) was 621.02 ± 37 J/K/mol, the molar heat capacity (321.55 K) was 613.41 ± 37 J/K/mol and the molar heat capacity (321.67 K) was 616.99 ± 37 J/K/mol. The molar heat capacity (321.79 K) was 616.1 ± 37 J/K/mol, the molar heat capacity (321.92 K) was 619.23 ± 37 J/K/mol and the molar heat capacity (322.04 K) was 622.36 ± 37 J/K/mol. For the same molecule, the molar heat capacity (322.16 K) was 621.02 ± 37 J/K/mol, the molar heat capacity (322.29 K) was 618.33 ± 37 J/K/mol and the molar heat capacity (322.41 K) was 623.7 ± 38 J/K/mol. The molar heat capacity (323.89 K) was 624.15 ± 38 J/K/mol, the molar heat capacity (324.15 K) was 620.57 ± 37 J/K/mol and the molar heat capacity (324.28 K) was 625.49 ± 38 J/K/mol. The molar heat capacity (324.4 K) was 627.73 ± 38 J/K/mol, the molar heat capacity (324.52 K) was 629.07 ± 38 J/K/mol and the molar heat capacity (324.65 K) was 621.47 ± 37 J/K/mol. The molar heat capacity (324.77 K) was 622.81 ± 38 J/K/mol, the molar heat capacity (324.89 K) was 617.89 ± 37 J/K/mol and the molar heat capacity (325.02 K) was 621.02 ± 37 J/K/mol. It also gave a molar heat capacity (325.14 K) of 625.05 ± 38 J/K/mol, a molar heat capacity (325.24 K) of 622.36 ± 37 J/K/mol and a molar heat capacity (325.26 K) of 623.7 ± 38 J/K/mol. The molar heat capacity (333.63 K) was 634.44 ± 38 J/K/mol, the molar heat capacity (333.82 K) was 633.99 ± 38 J/K/mol and the molar heat capacity (333.94 K) was 626.83 ± 38 J/K/mol. For the same molecule, the molar heat capacity (334.06 K) was 631.76 ± 38 J/K/mol, the molar heat capacity (334.18 K) was 629.07 ± 38 J/K/mol and the molar heat capacity (334.3 K) was 632.65 ± 38 J/K/mol. It also gave a molar heat capacity (334.42 K) of 636.68 ± 38 J/K/mol, a molar heat capacity (334.54 K) of 633.1 ± 38 J/K/mol and a molar heat capacity (334.66 K) of 627.28 ± 38 J/K/mol. The molar heat capacity (334.79 K) was 631.31 ± 38 J/K/mol, the molar heat capacity (334.91 K) was 629.97 ± 38 J/K/mol and the molar heat capacity (339.73 K) was 638.92 ± 38 J/K/mol. The molar heat capacity (339.83 K) was 637.13 ± 38 J/K/mol, the molar heat capacity (339.95 K) was 634.89 ± 38 J/K/mol and the molar heat capacity (340.03 K) was 643.39 ± 38 J/K/mol. For the same molecule, the molar heat capacity (340.15 K) was 635.78 ± 38 J/K/mol, the molar heat capacity (340.27 K) was 640.7 ± 38 J/K/mol and the molar heat capacity (340.39 K) was 642.05 ± 38 J/K/mol. The molar heat capacity (340.51 K) was 638.47 ± 38 J/K/mol, the molar heat capacity (344.34 K) was 641.6 ± 38 J/K/mol and the molar heat capacity (344.46 K) was 645.63 ± 39 J/K/mol. For the same molecule, the molar heat capacity (344.58 K) was 642.49 ± 38 J/K/mol, the molar heat capacity (344.7 K) was 644.73 ± 38 J/K/mol and the molar heat capacity (344.82 K) was 639.36 ± 38 J/K/mol. It also gave a molar heat capacity (344.93 K) of 648.31 ± 39 J/K/mol, a molar heat capacity (345.05 K) of 647.42 ± 39 J/K/mol and a molar heat capacity (345.17 K) of 645.18 ± 39 J/K/mol. The molar heat capacity (345.29 K) was 638.47 ± 38 J/K/mol, the molar heat capacity (345.41 K) was 643.84 ± 38 J/K/mol and the molar heat capacity (348.64 K) was 645.18 ± 39 J/K/mol. It also gave a molar heat capacity (348.76 K) of 643.84 ± 38 J/K/mol, a molar heat capacity (348.88 K) of 648.31 ± 39 J/K/mol and a molar heat capacity (348.99 K) of 646.97 ± 39 J/K/mol. The molar heat capacity (349.11 K) was 649.65 ± 39 J/K/mol, the molar heat capacity (349.23 K) was 648.76 ± 39 J/K/mol and the molar heat capacity (349.35 K) was 644.73 ± 38 J/K/mol. It also gave a molar heat capacity (349.47 K) of 647.42 ± 39 J/K/mol, a molar heat capacity (349.58 K) of 643.39 ± 38 J/K/mol and a molar heat capacity (349.65 K) of 648.31 ± 39 J/K/mol. For the same molecule, the molar heat capacity (349.7 K) was 645.63 ± 39 J/K/mol, the molar heat capacity (349.82 K) was 643.39 ± 38 J/K/mol and the molar heat capacity (349.94 K) was 645.63 ± 39 J/K/mol. The molar heat capacity (350.05 K) was 644.73 ± 38 J/K/mol, the molar heat capacity (350.17 K) was 646.97 ± 39 J/K/mol and the molar heat capacity (350.29 K) was 647.86 ± 39 J/K/mol. The molar heat capacity (350.36 K) was 647.42 ± 39 J/K/mol.
